Experiments:
Beta-lactamase TEM = Beta-lactamase TEM (Bacteria, UniProt P62593); test: Inhibition of bacterial N-terminal His-tagged TEV protease site linked TEM-1 (24 to 286 amino acids) expressed in Escherichia coli Transetta (DE3) preincubated for 10 mins followed by FC5 fluorescent substrate addition by fluorescence assay
[1] = Inhibition of bacterial N-terminal His-tagged TEV protease site linked GOB-18 (1 to 290 amino acids) expressed in Escherichia coli Transetta (DE3) preincubated for 10 mins followed by FC5 fluorescent substrate addition by fluorescence assay; parameters: species or system Bacteria
[2] = Inhibition of bacterial N-terminal His-tagged TEV protease site linked KPC-2 (29 to 289 amino acids) expressed in Escherichia coli Transetta (DE3) preincubated for 10 mins followed by FC5 fluorescent substrate addition by fluorescence assay; parameters: species or system Bacteria
[3] = Inhibition of bacterial N-terminal His-tagged TEV protease site linked SFH1 (3 to 234 amino acids) expressed in Escherichia coli Transetta (DE3) preincubated for 10 mins followed by FC5 fluorescent substrate addition by fluorescence assay; parameters: species or system Bacteria
[4] = Inhibition of bacterial N-terminal His-tagged TEV protease site linked AmpC (20 to 377 amino acids) expressed in Escherichia coli Transetta (DE3) preincubated for 10 mins followed by FC5 fluorescent substrate addition by fluorescence assay; parameters: species or system Bacteria
[5] = Inhibition of bacterial N-terminal His-tagged TEV protease site linked VIM-2 (27 to 266 amino acids) expressed in Escherichia coli Transetta (DE3) preincubated for 10 mins followed by FC5 fluorescent substrate addition by fluorescence assay; parameters: species or system Bacteria
[6] = Inhibition of bacterial N-terminal His-tagged TEV protease site linked NDM-1 (1 to 270 amino acids) expressed in Escherichia coli Transetta (DE3) preincubated for 10 mins followed by FC5 fluorescent substrate addition by fluorescence assay; parameters: species or system Bacteria
[7] = Inhibition of bacterial N-terminal His-tagged TEV protease site linked OXA-48 (1 to 265 amino acids) expressed in Escherichia coli Transetta (DE3) preincubated for 10 mins followed by FC5 fluorescent substrate addition by fluorescence assay; parameters: species or system Bacteria
[8] = target: Angiotensin-converting enzyme 2 (Homo sapiens, UniProt Q9BYF1); test: Inhibition of human C-terminal His/FLAG-tagged ACE-2 expressed in HEK293 cells at 100 uM preincubated for 10 mins followed by Mca-Ala-Pro-Lys(Dnp)-OH substrate addition by fluorescence assay relative to control; assay type: cell-based; details: hek293, 100 µM
[9] = Inhibition of serine hydrolase in Escherichia coli Transetta (DE3) cell lysates at 50 uM preincubated for 30 mins followed by TAMRA-FP probe labeling for 20 mins by SDS-PAGE based ABPP analysis; assay type: subcellular, Lysate; details: 20 min, 50 µM
[10] = Inhibition of serine hydrolase in HEK293T cell lysates at 50 uM preincubated for 30 mins followed by TAMRA-FP probe labeling for 20 mins by SDS-PAGE based ABPP analysis; assay type: subcellular, Lysate; details: human, 20 min, 50 µM

Angiotensin-converting enzyme 2, sequence (Q9BYF1 whole entry): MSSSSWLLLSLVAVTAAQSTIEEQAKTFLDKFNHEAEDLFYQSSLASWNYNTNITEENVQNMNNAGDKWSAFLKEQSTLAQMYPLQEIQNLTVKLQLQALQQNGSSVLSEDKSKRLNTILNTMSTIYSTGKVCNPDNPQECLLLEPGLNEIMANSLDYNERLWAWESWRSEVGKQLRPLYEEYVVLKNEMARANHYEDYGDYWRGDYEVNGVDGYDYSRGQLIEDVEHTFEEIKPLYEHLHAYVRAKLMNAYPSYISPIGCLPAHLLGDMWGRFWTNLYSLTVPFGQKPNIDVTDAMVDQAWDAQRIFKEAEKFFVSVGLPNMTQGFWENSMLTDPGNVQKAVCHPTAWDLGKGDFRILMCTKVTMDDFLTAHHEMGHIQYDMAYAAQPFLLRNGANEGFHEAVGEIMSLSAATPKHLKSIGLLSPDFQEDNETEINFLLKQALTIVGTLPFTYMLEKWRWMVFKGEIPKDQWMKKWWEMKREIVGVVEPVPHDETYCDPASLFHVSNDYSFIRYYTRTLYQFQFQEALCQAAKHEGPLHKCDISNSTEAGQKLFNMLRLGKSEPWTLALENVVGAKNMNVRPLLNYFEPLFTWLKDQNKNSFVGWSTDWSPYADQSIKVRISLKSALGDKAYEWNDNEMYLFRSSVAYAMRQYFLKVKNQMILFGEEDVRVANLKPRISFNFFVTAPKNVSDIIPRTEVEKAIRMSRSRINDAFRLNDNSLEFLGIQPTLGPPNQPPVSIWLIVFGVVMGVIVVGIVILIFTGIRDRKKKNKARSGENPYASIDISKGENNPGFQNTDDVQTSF
Beta-lactamase TEM, sequence (P62593 whole entry, the tested form may be a part): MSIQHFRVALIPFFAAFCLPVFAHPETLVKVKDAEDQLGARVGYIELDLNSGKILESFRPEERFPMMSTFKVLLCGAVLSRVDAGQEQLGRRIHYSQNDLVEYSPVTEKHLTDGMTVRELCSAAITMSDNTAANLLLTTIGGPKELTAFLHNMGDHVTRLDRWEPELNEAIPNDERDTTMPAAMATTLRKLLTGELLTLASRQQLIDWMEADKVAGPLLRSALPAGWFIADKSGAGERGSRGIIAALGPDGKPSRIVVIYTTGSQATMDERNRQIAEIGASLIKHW

| SMILES | Ki (Beta-lactamase TEM) [µM] | Ki [1] [µM] | Ki [2] [µM] | Ki [3] [nM] | Ki [4] [µM] | Ki [5] [nM] | Ki [6] [µM] | Ki [7] [µM] | inhibition (INH) [8] | inhibition (INH) [9] | inhibition (INH) [10] |
| --- | --- | --- | --- | --- | --- | --- | --- | --- | --- | --- | --- |
| CCC(=O)N[C@@H](Cc1ccccc1)B(O)O | > 300 | 252 | > 300 | 152000 | 158 | > 300000 | > 300 | > 300 | – | – | – |
| CCCC(=O)NCB(O)O | 100 | 12.1 | 38.1 | 5780 | 58.5 | > 300000 | > 300 | 102 | – | – | – |
| COc1ccc(C[C@@H](NC(=O)[C@H](C)CS)B(O)O)cc1 | 80.7 | 2.5 | 11.1 | 740 | 1.18 | 560 | 7.22 | > 300 | Not Active | – | – |
| CC(C)[C@@H](NC(=O)[C@H](C)CS)B(O)O | > 300 | 58 | 158 | 110000 | > 300 | 700 | 25.6 | > 300 | Not Active | – | – |
| C[C@H](CS)C(=O)N[C@@H](B(O)O)c1ccccc1 | 68.6 | 5.45 | 7.76 | 2450 | 7.03 | 2690 | 46.6 | 257 | Not Active | Not Active | Not Active |
| Cc1ccc([C@H](NC(=O)[C@H](C)CS)B(O)O)cc1 | 2.41 | 2.78 | 4.35 | 510 | 1.99 | 3280 | 16.7 | > 300 | Not Active | – | – |
| N#Cc1ccc(Oc2ccc3c(c2)COB3O)cc1 [CRISABOROLE] | – | – | – | – | – | – | – | – | – | Active | Active |
| CCC(=O)NCB(O)O | 36.3 | > 300 | 86.1 | > 300000 | 291 | > 300000 | > 300 | > 300 | – | – | – |
| C[C@H](CS)C(=O)N[C@@H](Cc1ccc(F)cc1)B(O)O | 4.16 | 1.01 | 4.82 | 190 | 0.77 | 260 | 22.8 | 85.8 | Not Active | – | – |
| O=C(N[C@@H](Cc1ccccc1)B(O)O)[C@@H](CS)N1C(=O)c2ccccc2C1=O | 32.8 | 32.1 | 8.65 | 7760 | 27.4 | 2410 | 57.7 | > 300 | – | – | – |
| O=C(CS)N[C@@H](Cc1ccccc1)B(O)O | 18.7 | 1.69 | 12.4 | 480 | 1.56 | 3340 | 165 | 50.5 | – | – | – |
| O=C(CS)N[C@H](Cc1coc2ccccc12)B(O)O | 6.84 | 1.67 | 0.5 | 120 | 0.97 | 42800 | 10.2 | 217 | Not Active | – | – |
| CC(C)C[C@@H](NC(=O)[C@H](C)CS)B(O)O | 70.5 | 4.25 | 18.4 | 1910 | 3.07 | 1130 | 37.6 | > 300 | Not Active | – | – |
| C[C@H](CS)C(=O)NCC(=O)O | > 300 | > 300 | 140 | > 300000 | > 300 | 1680 | 22.5 | > 300 | – | – | – |
| C[C@H](CS)C(=O)N[C@@H](B(O)O)c1ccc(F)cc1 | 67.9 | 1.02 | 7.08 | 280 | 1.57 | 650 | 21.1 | > 300 | Not Active | – | – |
| C[C@H](CS)C(=O)N[C@H](B(O)O)c1ccc2ccccc2c1 | 2.03 | 17.9 | 0.78 | 11100 | 20.2 | 720 | 13.1 | > 300 | Not Active | – | – |
| COc1ccc(C[C@H](NC(=O)[C@H](C)CS)B(O)O)cc1 | 3.36 | 1.72 | 1.96 | 510 | 1.23 | 180 | 27.2 | 172 | Not Active | – | – |
| O=C(CCS)N[C@H](Cc1coc2ccccc12)B(O)O | 35.7 | 2.5 | 5.56 | 630 | 4.47 | 330 | 16.5 | > 300 | Not Active | – | – |
| CC(C)[C@H](NC(=O)[C@H](C)CS)B(O)O | 166 | 11.5 | 5.35 | 9140 | 11.5 | 510 | 36.8 | > 300 | Not Active | – | – |
| CCCC(=O)N[C@@H](Cc1ccccc1)B(O)O | > 300 | 23.5 | 107 | 9210 | 33.4 | > 300000 | > 300 | > 300 | – | – | – |
| C[C@H](CS)C(=O)N[C@H](B(O)O)c1ccc(F)cc1 | 14.2 | 0.33 | 2.02 | 330 | 0.64 | 410 | 14.7 | > 300 | Not Active | – | – |
| CC(C)C[C@H](NC(=O)[C@H](C)CS)B(O)O | 171 | 11.1 | 36.1 | 6110 | 17.7 | 850 | 22.8 | > 300 | Not Active | – | – |
| C[C@H](CS)C(=O)N[C@@H](B(O)O)c1ccc2ccccc2c1 | 216 | 23.5 | 12 | 9750 | 25.3 | 7540 | 101 | > 300 | Not Active | – | – |
| Cc1ccc([C@@H](NC(=O)[C@H](C)CS)B(O)O)cc1 | 13.5 | 2.75 | 11.5 | 350 | 2.03 | 1280 | 15.9 | > 300 | Not Active | – | – |
| C[C@H](CS)C(=O)N[C@H](B(O)O)c1ccccc1 | 6.37 | 1.11 | 1.67 | 80 | 0.43 | 730 | 26.4 | > 300 | Not Active | Not Active | Not Active |
| C[C@H](CS)C(=O)N[C@H](Cc1ccc(F)cc1)B(O)O | 179 | 6.33 | 14.6 | 770 | 1.98 | 480 | 17.4 | > 300 | Not Active | – | – |
| O=C(CCS)N[C@@H](Cc1ccccc1)B(O)O | 15.8 | 1.64 | 19.4 | 890 | 1.14 | 4040 | 191 | 247 | – | – | – |
